# Experimental data reported in patent US9834514B2, “Antibiotic sensitivity-restoring and photosensitive agents” (New Mexico Tech Research Foundation, priority 2015, dated 2017).
# Where two headings read alike, the source gives them in different places.
# Tests used:
# [1] = test system: MRSA; assay: Resensitization to antibiotics (log reduction, TABLE 29); type: cell-based, S. aureus
# Experimental: In a 96-well microtiter plate, two-fold dilutions were made of each drug (starting with 100 μM) in 100 μL of a cell suspension in TSB. The resulting samples were incubated overnight at 37° C. on a rotary shaking incubator at 100 rpm. The samples were then visually inspected for turbidity. A 20% well volume of MTT reagent (5 mg/mL) was subsequently added, and the samples were incubated for about 20 minutes.
# [2] = test system: VRE; assay: as above; type: cell-based, Enterococcus faecalis; details: compound 1 μM; Light (2 min)
# [3] = test system: MRSA; assay: as above; type: cell-based, S. aureus; remark: listed apart in the source
# [4] = MIC against MRSA isolates; type: cell-based, S. aureus; details: Staphylococcus aureus
# Experimental: The MICs of S. aureus ATCC 33591, BAA-44, BAA-1707, BAA-1717, BAA-1720, BAA-1747, BAA-1754, BAA-1761, BAA-1763, BAA-1764, and BAA-1766 were measured using a cell concentration of about 5×10^5 colony forming units (CFU)/mL. In a 96-well microtiter plate, two-fold dilutions were made of each drug (starting with 100 μM) in 100 μL of a cell suspension in trypticase soy broth (TSB). The samples were incubated overnight at 37° C. on a rotary shaking incubator set at 100 revolutions per minute (rpm) and were visually inspected for turbidity. A 20% well-volume of 3-(4,5-dimethylthiazol-2-yl)-2,5-diphenyltetrazolium bromide (MTT reagent, 5 mg/mL) was added, and the samples were incubated for about 20 minutes. The MICs were determined as the lowest concentration at which full visual inhibition was observed by the unaided eye.
# [5] = test system: S. aureus (ATCC 29213); assay: MIC against drug sensitive S. aureus; type: cell-based; details: Staphylococcus aureus, ATCC29213; ATCC 29213; read-out: S. aureus MIC
# [6] = test system: P. aeruginosa; assay: MIC against P. aeruginosa; type: cell-based; details: Pseudomonas aeruginosa, read-out: MIC
# From the text: Only compound 1 was able to decrease the CFU/mL when used in conjunction with white light to treat P. aeruginosa.
# [7] = test system: A. baumannii; assay: Resensitization to antibiotics (log reduction, TABLE 29); type: cell-based; details: compound 5 μM
# [8] = test system: WI38 cells; assay: Toxicity (IC50) on WI38 cells; type: cell-based; details: Homo sapiens, WI-38; normal lung fibroblast WI38 cells
# Experimental: The toxicities of the compounds of the invention were determined for human cancerous cervical epithelium HeLa and normal lung fibroblast WI38 cells. The toxicities of EPIs INF-55 and INF-55Cl were quantified as controls. […] TABLE 2 compares the toxicity of compounds 7-11 on HeLa cells and normal WI38 cells.
# [9] = test system: MRSA isolates (S. aureus ATCC 33591, BAA-44, BAA-1707, BAA-1717, BAA-1720, BAA-1747, BAA-1754, BAA-1761, BAA-1763, BAA-1764, BAA-1766); assay: Combination effects of compounds 7-11 and antibiotics on MRSA isolates (turbidity); type: cell-based
# From the text: Inhibition resulting from co-treatment of a broth suspension with a compound of the invention and an antibiotic was compared to broth suspensions subjected to each individual treatment. A visual observation of inhibition with the unaided eye upon co-treatment of the broth suspensions, based on turbidity, was considered synergistic.
# Exceptions to reading complete inhibition of growth included Gram-positive cocci. For Gram-positive cocci, trailing growth was observed. For these species, the MICs were read at the first spot where trailing was observed, and tiny buttons of growth were ignored. […]
# Two-fold dilutions of the antibiotics were prepared in a liquid growth medium dispensed in test tubes. […] The antibiotic-containing tubes were inoculated with a standard bacterial suspension of 5×10^5 CFU/mL. Following an overnight incubation (16-20 hrs) at 35±2° C. under ambient air, the tubes were examined for visible bacterial growth based on turbidity. The lowest concentration of antibiotic that prevented growth was determined to be the MIC. An incubation time of 24 hrs was used to determine the MICs of oxacillin and vancomycin.
# [10] = MRSA (ATCC BAA-44), TABLE 21, read-out: MRSA MIC
# [11] = MRSA isolate ATCC BAA-44, read-out: MIC
structure (smiles),measurement,setting,value
Clc1ccc(/C=C/c2[nH]c3ccccc3c2/C=C/c2ccc(Cl)cc2)cc1 [Compound 1],Log Reduction,"[1]; compound 1 μM, MRSA ATCC BAA-1717, Light (2 min)",6
same,Log Reduction,"[1]; compound 10 μM, Norfloxacin (20 μg/mL)",9
same,Log Reduction,"[1]; compound 10 μM, Oxacillin (100 μg/mL)",7-8
same,Log Reduction,"[1]; compound 10 μM, Tetracycline (0.1 μg/mL)",5-6
same,Log Reduction,"[1]; compound 10 μM, Tobramycin (100 μg/mL)",9
same,Log Reduction,[2],8-9
same,Log Reduction,"[3]; compound 1 μM, MRSA ATCC BAA-44, Light (2 min)",8
same,Log Reduction,"[3]; compound 10 μM, Dicloxacillin (1 μg/mL)",8
same,Log Reduction,"[3]; compound 10 μM, Doxycycline (0.1 μg/mL)",4
same,Log Reduction,"[3]; compound 10 μM, Vancomycin (0.5 μg/mL)",9
same,MIC,[4]; [10],400 µM
same,MIC,[4]; [11],400 µM
same,MIC,[5],100 µM
same,MIC,[6],> 100 µM
same,Log Reduction,[7]; PMB (0.5 μg/mL),8
same,Log Reduction,[7]; PME (0.2 μg/mL),8
Clc1ccc(Oc2c(-c3ccc(Cl)cc3)[nH]c3ccc(Cl)cc23)cc1 [Compound 11],IC50,[8],9.62 µM
same,combination effect with Gentamycin,[9]; MRSA ATCC 33591,No Synergy
same,combination effect with Norfloxacin,[9]; MRSA ATCC 33591,No Synergy
same,combination effect with Oxacillin,[9]; MRSA ATCC 33591,No Synergy
same,combination effect with Tetracycline,[9]; MRSA ATCC 33591,No Synergy
same,combination effect with Vancomycin,[9]; MRSA ATCC 33591,Susceptible
same,combination effect with Norfloxacin,[9]; MRSA ATCC BAA-44,No Synergy
same,combination effect with Oxacillin,[9]; MRSA ATCC BAA-44,Synergy
same,combination effect with Tetracycline,[9]; MRSA ATCC BAA-44,Susceptible
same,combination effect with Vancomycin,[9]; MRSA ATCC BAA-44,Susceptible
same,combination effect with Gentamycin,[9]; MRSA ATCC BAA-1707,Susceptible
same,combination effect with Norfloxacin,[9]; MRSA ATCC BAA-1707,Susceptible
same,combination effect with Oxacillin,[9]; MRSA ATCC BAA-1707,Susceptible
same,combination effect with Tetracycline,[9]; MRSA ATCC BAA-1707,Synergy
same,combination effect with Vancomycin,[9]; MRSA ATCC BAA-1707,Susceptible
same,combination effect with Gentamycin,[9]; MRSA ATCC BAA-1717,Susceptible
same,combination effect with Norfloxacin,[9]; MRSA ATCC BAA-1717,Susceptible
same,combination effect with Oxacillin,[9]; MRSA ATCC BAA-1717,Synergy
same,combination effect with Tetracycline,[9]; MRSA ATCC BAA-1717,Susceptible
same,combination effect with Vancomycin,[9]; MRSA ATCC BAA-1717,Susceptible
same,combination effect with Gentamycin,[9]; MRSA ATCC BAA-1720,Susceptible
same,combination effect with Norfloxacin,[9]; MRSA ATCC BAA-1720,No Synergy
same,combination effect with Oxacillin,[9]; MRSA ATCC BAA-1720,No Synergy
same,combination effect with Tetracycline,[9]; MRSA ATCC BAA-1720,Susceptible
same,combination effect with Vancomycin,[9]; MRSA ATCC BAA-1720,Susceptible
same,combination effect with Gentamycin,[9]; MRSA ATCC BAA-1747,Susceptible
same,combination effect with Norfloxacin,[9]; MRSA ATCC BAA-1747,Susceptible
same,combination effect with Oxacillin,[9]; MRSA ATCC BAA-1747,Susceptible
same,combination effect with Tetracycline,[9]; MRSA ATCC BAA-1747,Susceptible
same,combination effect with Vancomycin,[9]; MRSA ATCC BAA-1747,Susceptible
same,combination effect with Gentamycin,[9]; MRSA ATCC BAA-1754,Susceptible
same,combination effect with Norfloxacin,[9]; MRSA ATCC BAA-1754,Susceptible
same,combination effect with Oxacillin,[9]; MRSA ATCC BAA-1754,No Synergy
same,combination effect with Tetracycline,[9]; MRSA ATCC BAA-1754,Susceptible
same,combination effect with Vancomycin,[9]; MRSA ATCC BAA-1754,Susceptible
same,combination effect with Gentamycin,[9]; MRSA ATCC BAA-1761,Susceptible
same,combination effect with Norfloxacin,[9]; MRSA ATCC BAA-1761,No Synergy
same,combination effect with Oxacillin,[9]; MRSA ATCC BAA-1761,Susceptible
same,combination effect with Tetracycline,[9]; MRSA ATCC BAA-1761,Susceptible
same,combination effect with Vancomycin,[9]; MRSA ATCC BAA-1761,Susceptible
same,combination effect with Gentamycin,[9]; MRSA ATCC BAA-1763,Susceptible
same,combination effect with Norfloxacin,[9]; MRSA ATCC BAA-1763,No Synergy
same,combination effect with Oxacillin,[9]; MRSA ATCC BAA-1763,No Synergy
same,combination effect with Tetracycline,[9]; MRSA ATCC BAA-1763,Susceptible
same,combination effect with Vancomycin,[9]; MRSA ATCC BAA-1763,Susceptible
same,combination effect with Gentamycin,[9]; MRSA ATCC BAA-1764,Susceptible
same,combination effect with Norfloxacin,[9]; MRSA ATCC BAA-1764,Susceptible
same,combination effect with Oxacillin,[9]; MRSA ATCC BAA-1764,No Synergy
same,combination effect with Tetracycline,[9]; MRSA ATCC BAA-1764,Susceptible
same,combination effect with Vancomycin,[9]; MRSA ATCC BAA-1764,Susceptible
same,combination effect with Gentamycin,[9]; MRSA ATCC BAA-1766,Susceptible
same,combination effect with Norfloxacin,[9]; MRSA ATCC BAA-1766,Susceptible
same,combination effect with Oxacillin,[9]; MRSA ATCC BAA-1766,No Synergy
same,combination effect with Tetracycline,[9]; MRSA ATCC BAA-1766,Susceptible
same,combination effect with Vancomycin,[9]; MRSA ATCC BAA-1766,Susceptible
same,Log Reduction,"[3]; compound 0.5 μM, Norfloxacin (20 μg/mL)",8
same,Log Reduction,"[3]; compound 0.5 μM, Oxacillin (100 μg/mL)",5
same,MIC,[4]; [10],8 µM
same,MIC,"[4]; MRSA isolate ATCC 33591, read-out: MIC",6.3 to 12.5 µM
same,MIC,[4]; [11],4 µM
same,MIC,"[4]; MRSA isolate ATCC BAA-1707, read-out: MIC",12.5 µM
same,MIC,"[4]; MRSA isolate ATCC BAA-1717, read-out: MIC",3.1 to 6.3 µM
same,MIC,"[4]; MRSA isolate ATCC BAA-1720, read-out: MIC",3.1 to 6.3 µM
same,MIC,"[4]; MRSA isolate ATCC BAA-1747, read-out: MIC",6.3 to 12.5 µM
same,MIC,"[4]; MRSA isolate ATCC BAA-1754, read-out: MIC",50 to 100 µM
same,MIC,"[4]; MRSA isolate ATCC BAA-1761, read-out: MIC",50 to 100 µM
same,MIC,"[4]; MRSA isolate ATCC BAA-1763, read-out: MIC",50 µM
same,MIC,"[4]; MRSA isolate ATCC BAA-1764, read-out: MIC",50 µM
same,MIC,"[4]; MRSA isolate ATCC BAA-1766, read-out: MIC",50 to 100 µM
same,MIC,[5],32 to 64 µM
same,MIC,[6],> 100 µM
same,Log Reduction,[7]; PME (0.2 μg/mL),8
